# Laboratory results reported in patent US6417187B2, “1,2,4-triazole based compounds that can be used as insecticides or acaricides and processes” (Dow AgroSciences LLC, priority 2000, dated 2002).
# What was measured:
# Type in all cases: in vivo
# [1] = system: tobacco budworm (Heliothis virescens); assay: Insecticidal test for tobacco budworm (cotton cotyledon leaf-disc dip); conditions: for pest or weed control at 400 ppm: Heliothis virescens, 120 h, read-out: TBW: activity at 400 ppm against tobacco budworm (% Control rating)
# [2] = system: cabbage looper (Trichoplusia ni); assay: Insecticidal test for cabbage looper (cabbage leaf-disc dip); conditions: for pest or weed control at 400 ppm: Trichoplusia ni, 120 h, read-out: CL: activity at 400 ppm against cabbage looper (% Control rating)
# [3] = system: cotton aphid (Aphis gossvpii); assay: Insecticidal test for cotton aphid (squash cotyledon spray); conditions: for pest or weed control at 50 ppm: 72 h, read-out: CA: activity at 50 ppm against cotton aphid (% Control rating)
# [4] = system: two-spotted spider mite (Tetranychus urticae); assay: Insecticidal test for two-spotted spider mite, ovicide method; conditions: 2.5 ppm (table footnote), ovicide method on cotton leaf discs, 6 days; for pest or weed control at 2.5 ppm: Tetranychus urticae, foliar, 144 h, read-out: SM: activity at 2.5 ppm against two-spotted spider mite (% Control rating)
# [5] = system: Sweetpotato Whitefly (Bemisia tabacia); assay: Insecticidal test for Sweetpotato Whitefly (cotton plant spray); conditions: for pest or weed control at 200 ppm: Bemisia, 312 h, read-out: WF: activity at 200 ppm against whitefly (% Control rating)
# [6] = system: beet armyworm (Spodoptera exigua); assay: Insecticidal test for beet armyworm (treated lepidopteran diet); conditions: for pest or weed control at 400 ppm: Spodoptera exigua, 120 h, read-out: BAW: activity at 400 ppm against beet armyworm (% Control rating)
# [7] = system: Brown Planthopper (Nilaparvata lugens); assay: Insecticidal test for Brown Planthopper (rice seedling roots in test solution)
# [8] = system: Green Leafhopper (Nephotettix cincticeps); assay: Insecticidal test for Green Leafhopper (rice seedling roots in test solution)
# [9] = 400 ppm, cotton cotyledon leaf-dip, 2nd instar larvae, 5 days
# [10] = 400 ppm, cabbage leaf-dip, 2nd instar larvae, 5 days
# [11] = 50 ppm spray on infested squash cotyledons, 3 days, population reduction versus untreated
# [12] = 200 ppm spray on cotton plants, 13 days, reduction of large nymphs
# [13] = 400 ppm, treated diet, second-instar larvae, 5 days
# [14] = 10 ppm test solution, rice seedling roots, 3rd instar nymphs, mortality at 6 days
SMILES,"BPH: activity at 10 ppm against brown planthopper (% Control rating) [7, 14]","TBW: activity at 400 ppm against tobacco budworm (% Control rating) [1, 9]","BAW: activity at 400 ppm against beet armyworm (% Control rating) [6, 13]","CL: activity at 400 ppm against cabbage looper (% Control rating) [2, 10]","CA: activity at 50 ppm against cotton aphid (% Control rating) [3, 11]","WF: activity at 200 ppm against whitefly (% Control rating) [5, 12]",SM: activity at 2.5 ppm against two-spotted spider mite (% Control rating) [4],further results
Cn1nc(-c2c(F)cccc2Cl)nc1-c1sc(C#CC(C)(C)C)c(Cl)c1Cl [Compound 3],–,–,–,–,–,–,–,"pest or weed control at 400 ppm [1, 9]: 60 to 69%; pest or weed control at 400 ppm [2, 10]: 90 to 100%; pest or weed control at 50 ppm [3, 11]: 90 to 100%; pest or weed control at 2.5 ppm [4]: 80 to 89%; pest or weed control at 200 ppm [5, 12]: < 50%"
Cn1nc(-c2c(F)cccc2Cl)nc1-c1sc(C#Cc2ccccc2)c(Cl)c1Cl [Compound 4],E (50-59),–,–,–,–,–,–,"pest or weed control at 400 ppm [1, 9]: < 50%; pest or weed control at 400 ppm [6, 13]: 90 to 100%; pest or weed control at 400 ppm [2, 10]: 90 to 100%; pest or weed control at 50 ppm [3, 11]: 80 to 89%; pest or weed control at 2.5 ppm [4]: 60 to 69%; pest or weed control at 200 ppm [5, 12]: < 50%"
CCCOc1ccc(C#Cc2sc(-c3nc(-c4c(F)cccc4Cl)nn3C)c(Cl)c2Cl)cc1 [Compound 15],F (less than 50),F (less than 50),D (60-69),D (60-69),D (60-69),F (less than 50),–,"GLH: activity at 10 ppm against green leafbopper (% Control rating) [8, 14]: F (less than 50)"
Cn1nc(-c2c(F)cccc2Cl)nc1-c1sc(C#Cc2cccc(F)c2F)c(Cl)c1Cl [Compound 27],E (50-59),D (60-69),A (90-100),A (90-100),–,D (60-69),F (less than 50),"GLH: activity at 10 ppm against green leafbopper (% Control rating) [8, 14]: F (less than 50)"
CCN(CC)c1ncc(C#Cc2sc(-c3nc(-c4c(F)cccc4Cl)nn3C)c(Cl)c2Cl)cn1 [Compound 41],E (50-59),–,–,–,–,–,–,"pest or weed control at 400 ppm [1, 9]: 60 to 69%; pest or weed control at 400 ppm [6, 13]: 90 to 100%; pest or weed control at 400 ppm [2, 10]: 80 to 89%; pest or weed control at 50 ppm [3, 11]: < 50%; pest or weed control at 2.5 ppm [4]: < 50%; pest or weed control at 200 ppm [5, 12]: < 50%"
CCOc1ccc(C#Cc2sc(-c3nc(-c4c(F)cccc4Cl)nn3C)c(Cl)c2Cl)cc1C(F)(F)F [Compound 49],F (less than 50),D (60-69),A (90-100),A (90-100),F (less than 50),F (less than 50),–,–
CCCCCCc1ccc(C#Cc2sc(-c3nc(-c4c(F)cccc4Cl)nn3C)c(Cl)c2Cl)cc1 [Compound 54],–,–,–,–,–,–,–,TBW: activity at 400 ppm against tobacco budworm (% Control rating) ([1]; in vivo): A (key: A: 90-100; B: 80-89; C: 70-79; D: 60-69; E: 50-59; F: less than 50; G: inactive); BAW: activity at 400 ppm against beet armyworm (% Control rating) ([6]; in vivo): A (key: A: 90-100; B: 80-89; C: 70-79; D: 60-69; E: 50-59; F: less than 50; G: inactive); CL: activity at 400 ppm against cabbage looper (% Control rating) ([2]; in vivo): B (key: A: 90-100; B: 80-89; C: 70-79; D: 60-69; E: 50-59; F: less than 50; G: inactive); CA: activity at 50 ppm against cotton aphid (% Control rating) ([3]; in vivo): E (key: A: 90-100; B: 80-89; C: 70-79; D: 60-69; E: 50-59; F: less than 50; G: inactive); WF: activity at 200 ppm against whitefly (% Control rating) ([5]; in vivo): F (key: A: 90-100; B: 80-89; C: 70-79; D: 60-69; E: 50-59; F: less than 50; G: inactive); BPH: activity at 10 ppm against brown planthopper (% Control rating) ([7]; in vivo): F (key: A: 90-100; B: 80-89; C: 70-79; D: 60-69; E: 50-59; F: less than 50; G: inactive); GLH: activity at 10 ppm against green leafbopper (% Control rating) ([8]; in vivo): F (key: A: 90-100; B: 80-89; C: 70-79; D: 60-69; E: 50-59; F: less than 50; G: inactive)
CCCCCCCc1ccc(C#Cc2sc(-c3nc(-c4c(F)cccc4Cl)nn3C)c(Cl)c2Cl)cc1 [Compound 55],–,–,–,–,–,–,–,TBW: activity at 400 ppm against tobacco budworm (% Control rating) ([1]; in vivo): D (key: A: 90-100; B: 80-89; C: 70-79; D: 60-69; E: 50-59; F: less than 50; G: inactive); BAW: activity at 400 ppm against beet armyworm (% Control rating) ([6]; in vivo): A (key: A: 90-100; B: 80-89; C: 70-79; D: 60-69; E: 50-59; F: less than 50; G: inactive); CL: activity at 400 ppm against cabbage looper (% Control rating) ([2]; in vivo): A (key: A: 90-100; B: 80-89; C: 70-79; D: 60-69; E: 50-59; F: less than 50; G: inactive); CA: activity at 50 ppm against cotton aphid (% Control rating) ([3]; in vivo): F (key: A: 90-100; B: 80-89; C: 70-79; D: 60-69; E: 50-59; F: less than 50; G: inactive); WF: activity at 200 ppm against whitefly (% Control rating) ([5]; in vivo): F (key: A: 90-100; B: 80-89; C: 70-79; D: 60-69; E: 50-59; F: less than 50; G: inactive); BPH: activity at 10 ppm against brown planthopper (% Control rating) ([7]; in vivo): F (key: A: 90-100; B: 80-89; C: 70-79; D: 60-69; E: 50-59; F: less than 50; G: inactive); GLH: activity at 10 ppm against green leafbopper (% Control rating) ([8]; in vivo): F (key: A: 90-100; B: 80-89; C: 70-79; D: 60-69; E: 50-59; F: less than 50; G: inactive)
CCCCCCCOc1ccc(C#Cc2sc(-c3nc(-c4c(F)cccc4Cl)nn3C)c(Cl)c2Cl)cc1 [Compound 56],F (less than 50),A (90-100),A (90-100),A (90-100),E (50-59),F (less than 50),–,–
Cc1c(C#Cc2ccccc2)csc1-c1nc(-c2c(F)cccc2Cl)nn1C [Compound 67],–,B (80-89),A (90-100),–,A (90-100),F (less than 50),B (80-89),–
CCCc1ccc(C#Cc2cc(C)c(-c3nc(-c4c(F)cccc4Cl)nn3C)s2)cc1 [Compound 72],F (less than 50),–,A (90-100),B (80-89),C (70-79),F (less than 50),F (less than 50),–
CCCCC#Cc1cncc(-c2nc(-c3c(Cl)cncc3Cl)nn2C)c1 [Compound 86],F (less than 50),–,–,–,E (50-59),F (less than 50),C (70-79),"GLH: activity at 10 ppm against green leafbopper (% Control rating) [8, 14]: F (less than 50)"
Cn1nc(-c2c(F)cccc2Cl)nc1-c1ccc(C#Cc2ccc(F)cc2)c(Cl)c1Cl [Compound 92],F (less than 50),–,A (90-100),A (90-100),A (90-100),F (less than 50),F (less than 50),"GLH: activity at 10 ppm against green leafbopper (% Control rating) [8, 14]: F (less than 50)"
Cn1nc(-c2c(F)cccc2Cl)nc1-c1ccc(C#C[Si](C)(C)C)c(Cl)c1Cl [Compound 96],–,F (less than 50),A (90-100),A (90-100),D (60-69),F (less than 50),D (60-69),–
